Measurements: patent US9758529B2, “Fused dihydro-4H-pyrazolo[5,1-C][1,4]oxazinyl compounds and analogs for treating CNS disorders” (Sunovion Pharmaceuticals Inc., priority 2015, dated 2017)

What follows are compounds tested on mice (assay: Neuropharmacological Assay (SmartCube)). Details: i.p. 15 min before behavioral test; 3 doses, most efficacious dose(s) presented.
Type: in vivo

**Q.** With `CN1CCO[C@@H]([C@@H]2OCCn3nc4ccccc4c32)C1` [Compound 25, (2R)-2-((R)-3,4-dihydro-1H-[1,4]oxazino[4,3-b]indazol-1-yl)-4-methylmorpholin-4-ium chloride] as the compound, how does the “AD: ADHD (probability of class match)” value read?
**A.** ++ (5%≦ ++ <25%)

**Q.** And the “AG: analgesic (probability of class match)” value (“AG: analgesic” below)?
**A.** ++ (5%≦ ++ <25%)

**Q.** What about the “AX: anxiolytic (probability of class match)” value (shortened to “AX: anxiolytic”) of the same compound?
**A.** ++ (5%≦ ++ <25%)

**Q.** And the “CE: cognitive enhancer (probability of class match)” value (from here on “CE: cognitive enhancer”)?
**A.** + (LOQ≦ + <5%)

**Q.** What about the “DP: anti-depressant (probability of class match)” value (“DP: anti-depressant” for short) of the same compound?
**A.** ++ (5%≦ ++ <25%)

**Q.** What about the “HA: hallucinogen (probability of class match)” value (from here on “HA: hallucinogen”) of the same compound?
**A.** + (LOQ≦ + <5%)

**Q.** What about the “MS: mood stabilizer (probability of class match)” value (shortened to “MS: mood stabilizer”) of the same compound?
**A.** + (LOQ≦ + <5%)

**Q.** What about the “PS: anti-psychotic (probability of class match)” value (shortened to “PS: anti-psychotic”) of the same compound?
**A.** + (LOQ≦ + <5%)

**Q.** And the “SD: sedative hypnotic (probability of class match)” value (from here on “SD: sedative hypnotic”)?
**A.** + (LOQ≦ + <5%)

**Q.** And the “UN: uncharacterized CNS activity (probability of class match)” value (“UN: uncharacterized CNS activity” below)?
**A.** + (LOQ≦ + <5%)

**Q.** What about the “XG: anxiogenic (probability of class match)” value (from here on “XG: anxiogenic”) of the same compound?
**A.** + (LOQ≦ + <5%)

**Q.** For `CN1CC(C2OCCn3nc4ccccc4c32)C1.Cl` (stereo not shown) [Compound 67, 3-(3,4-dihydro-1H-[1,4]oxazino[4,3-b]indazol-1-yl)-1-methylazetidin-1-ium chloride], which “AD: ADHD (probability of class match)” value is on record?
**A.** + (LOQ≦ + <5%)

**Q.** What about the “AG: analgesic” value of the same compound?
**A.** + (LOQ≦ + <5%)

**Q.** And the “AX: anxiolytic” value?
**A.** ++ (5%≦ ++ <25%)

**Q.** What about the “CE: cognitive enhancer” value of the same compound?
**A.** + (LOQ≦ + <5%)

**Q.** And the “DP: anti-depressant” value?
**A.** ++ (5%≦ ++ <25%)

**Q.** What about the “HA: hallucinogen” value of the same compound?
**A.** + (LOQ≦ + <5%)

**Q.** What about the “MS: mood stabilizer” value of the same compound?
**A.** + (LOQ≦ + <5%)

**Q.** And the “PS: anti-psychotic” value?
**A.** + (LOQ≦ + <5%)

**Q.** And the “SD: sedative hypnotic” value?
**A.** + (LOQ≦ + <5%)

**Q.** And the “UN: uncharacterized CNS activity” value?
**A.** + (LOQ≦ + <5%)

**Q.** And the “XG: anxiogenic” value?
**A.** + (LOQ≦ + <5%)

**Q.** What does the source list for `CCN(C)C[C@@H]1OCCn2nc3ccccc3c21.Cl` [Compound 49, N—(((S)-3,4-dihydro-1H-[1,4]oxazino[4,3-b]indazol-1-yl)methyl)-N-methylethanaminium chloride]?
**A.** AD: ADHD (probability of class match): + (LOQ≦ + <5%); AG: analgesic (probability of class match): +++ (25%≦ +++ <50%); AX: anxiolytic (probability of class match): ++ (5%≦ ++ <25%); CE: cognitive enhancer (probability of class match): ++ (5%≦ ++ <25%); DP: anti-depressant (probability of class match): ++ (5%≦ ++ <25%); HA: hallucinogen (probability of class match): + (LOQ≦ + <5%); MS: mood stabilizer (probability of class match): + (LOQ≦ + <5%); PS: anti-psychotic (probability of class match): + (LOQ≦ + <5%); SD: sedative hypnotic (probability of class match): ++ (5%≦ ++ <25%); UN: uncharacterized CNS activity (probability of class match): + (LOQ≦ + <5%); XG: anxiogenic (probability of class match): + (LOQ≦ + <5%)

**Q.** Which “AD: ADHD (probability of class match)” value does the source give for `Cl.NCC1OCCn2nc3ccsc3c21` (stereo not shown) [Compound 60, (6,7-dihydro-9H-thieno[3′,2′:3,4]pyrazolo[5,1-c][1,4]oxazin-9-yl)methanaminium chloride] here?
**A.** ++ (5%≦ ++ <25%)

**Q.** And the “AG: analgesic” value?
**A.** + (LOQ≦ + <5%)

**Q.** What about the “AX: anxiolytic” value of the same compound?
**A.** +++ (25%≦ +++ <50%)

**Q.** And the “CE: cognitive enhancer” value?
**A.** + (LOQ≦ + <5%)

**Q.** And the “DP: anti-depressant” value?
**A.** ++ (5%≦ ++ <25%)

**Q.** And the “HA: hallucinogen” value?
**A.** + (LOQ≦ + <5%)

**Q.** What about the “MS: mood stabilizer” value of the same compound?
**A.** + (LOQ≦ + <5%)

**Q.** What about the “PS: anti-psychotic” value of the same compound?
**A.** + (LOQ≦ + <5%)

**Q.** What about the “SD: sedative hypnotic” value of the same compound?
**A.** ++ (5%≦ ++ <25%)

**Q.** What about the “UN: uncharacterized CNS activity” value of the same compound?
**A.** + (LOQ≦ + <5%)

**Q.** And the “XG: anxiogenic” value?
**A.** + (LOQ≦ + <5%)

**Q.** What does the source list for `CNCC1OCCn2nc3cc(F)ccc3c21` (stereo not shown) [Compound 10, 1-(8-fluoro-3,4-dihydro-1H-[1,4]oxazino[4,3-b]indazol-1-yl)-N-methylmethanaminium]?
**A.** AD: ADHD (probability of class match): + (LOQ≦ + <5%); AG: analgesic (probability of class match): ++ (5%≦ ++ <25%); AX: anxiolytic (probability of class match): ++ (5%≦ ++ <25%); CE: cognitive enhancer (probability of class match): + (LOQ≦ + <5%); DP: anti-depressant (probability of class match): ++++ (50%≦ ++++); HA: hallucinogen (probability of class match): + (LOQ≦ + <5%); MS: mood stabilizer (probability of class match): + (LOQ≦ + <5%); PS: anti-psychotic (probability of class match): ++ (5%≦ ++ <25%); SD: sedative hypnotic (probability of class match): + (LOQ≦ + <5%); UN: uncharacterized CNS activity (probability of class match): + (LOQ≦ + <5%); XG: anxiogenic (probability of class match): ++ (5%≦ ++ <25%)
